Assay results reported in patent EP0123700A1, “Substituted picolinic acids, processes for their preparation, their use, and pharmaceutical preparations containing them” (Byk Gulden Lomberg Chemische Fabrik GmbH, priority 1983, dated 1984).
“And” between values parts separate entries of the source, which are not always exact repeats. Identical values can stand only once.

Experiments:
[1] = test system: genetisch hypertonen Ratten; experiment: Antihypertensive effect: systolic blood pressure (tail cuff) in conscious genetically hypertensive rats, oral dosing once daily on four consecutive days; assay type: in vivo, Ratten (Stamm SHR/N/Ibm/Bm); details: for Th.W. (Therapeutische Wirksamkeit): mean of quotient over the doses of Table I
Experimental: Zur Bestimmung der äntihypertensiven Wirkung werden die unten aufgeführten Verbindungen in den angegebenen Dosen an vier aufeinander folgenden Tagen an je 6 Ratten (Stamm SHR/N/Ibm/Bm, ♂, 250-350 g) mit genetisch bedingtem Hochdruck (RR > 180 mmHg) täglich einmal mittels Schlundsonde verabfolgt. Die Messung des Blutdrucks erfolgt jeweils 2, 6 und gegebenenfalls 24 Stunden nach Substanzgabe.
Die Blutdruckmessung wird in einer Wärmekammer bei 36°C vorgenommen, um eine bessere Durchblutung der Schwanzarterie zu erreichen. Hierzu werden die Tiere in perforierte Lochblechkäfige verbracht und 20 - 40 Min. nach Beginn der Aufwärmung gemessen. Zur Messung des systolischen arteriellen Drucks wird eine ringförmige Manschette mit aufblasbarer Gummimembran zur Unterbindung der Durchblutung und ein ringförmiger Piezökristallaufnehmer zur Erfassung der Pulswellen auf den Schwanz aufgeschoben. Nach erfolgter Unterbindung des Blutstroms in der Schwanzarterie wird der Manschettendruck kontinuierlich reduziert. […] Pulssignale und Druckverlauf werden zur Auswertung graphisch aufgezeichnet.
Zur Gewöhnung an den Meßvorgang werden die Tiere vor Substanzprüfung 14 Tage traniniert. In der zweiten Trainingswoche werden Blutdruck-Vorwerte erhoben. Tiergruppen, die Substanz erhälten, werden gegen eine Kontrollgruppe geprüft.

weiblichen NMRI-Mäusen = experiment: Oral toxicity (LD50) in mice, 14 days observation; assay type: in vivo; details: N=5/dose
Description: (§1) Die Toxizitätsuntersuchungen werden an weiblichen NMRI-Mäusen (Körpergewicht 22 - 26 g) durchgeführt. Die Tiere (5 Tiere pro Dosis) erhalten Futter und Wasser ad libitum. Verschiedene Dosen der Substanzen werden oral verabreicht. Die Beobachtungsdauer beträgt 14 Tage. Die LD50, d.h. die Dosis bei der 50% der Tiere sterben, wird aus der Dosiswirkungskurve graphisch ermittelt.

[2] = Oral toxicity (LD50) in mice, 14 days observation; assay type: in vivo; details: mouse, in vivo, N=5/dose
Description: as §1

[3] = day 1 (2h, 6h and 24h Th.W. averaged), normalised to Th.W. Fusarsäure = 1
[4] = day 3 (6h and 24h Th.W. averaged), normalised to Th.W. Fusarsäure = 1
[5] = day 4 (2h and 6h Th.W. averaged), normalised to Th.W. Fusarsäure = 1
[6] = day 2, normalised to Th.W. Fusarsäure = 1

COc1ccccc1N1CCN(CCCNC(=O)c2ccc(-c3ccccc3)cn2)CC1 [lfd. Nr. 5, 5-Phenylpyridin-2-carbonsäure-(3-[4-(2-methoxyphenyl)-piperazinyl-1]-propyl)-amid]
BP (%-Änderungen) ([1]; 6,4 mg/kg p.o., day 1, 2h): -19%
BP (%-Änderungen) ([1]; 6,4 mg/kg p.o., day 1, 6h): -14%
BP (%-Änderungen) ([1]; 6,4 mg/kg p.o., day 1, 24h): -20%
BP (%-Änderungen) ([1]; 6,4 mg/kg p.o., day 2, 6h): -12%
BP (%-Änderungen) ([1]; 6,4 mg/kg p.o., day 3, 6h): -11%
BP (%-Änderungen) ([1]; 6,4 mg/kg p.o., day 3, 24h): -5%
BP (%-Änderungen) ([1]; 6,4 mg/kg p.o., day 4, 2h): -16%
BP (%-Änderungen) ([1]; 6,4 mg/kg p.o., day 4, 6h): -24%
BP (%-Änderungen) ([1]; 25,6 mg/kg p.o., day 1, 2h): -26%
BP (%-Änderungen) ([1]; 25,6 mg/kg p.o., day 1, 6h): -20%
BP (%-Änderungen) ([1]; 25,6 mg/kg p.o., day 1, 24h): -14%
BP (%-Änderungen) ([1]; 25,6 mg/kg p.o., day 2, 6h): -12%
BP (%-Änderungen) ([1]; 25,6 mg/kg p.o., day 3, 6h): -12%
BP (%-Änderungen) ([1]; 25,6 mg/kg p.o., day 3, 24h): -3%
BP (%-Änderungen) ([1]; 25,6 mg/kg p.o., day 4, 2h): -12%
BP (%-Änderungen) ([1]; 25,6 mg/kg p.o., day 4, 6h): -22%
Th.I. Fusarsäure = 1 [1, 3]: 70,6
Th.W. (Therapeutische Wirksamkeit) ([1]; day 1, 2h): -89,8 %-Änderung BP / µmol/kg x 100
Th.W. (Therapeutische Wirksamkeit) ([1]; day 1, 6h): -66,9 %-Änderung BP / µmol/kg x 100
Th.W. (Therapeutische Wirksamkeit) ([1]; day 1, 24h): -82,7 %-Änderung BP / µmol/kg x 100
Th.W. (Therapeutische Wirksamkeit) ([1]; day 2, 6h): -52,8 %-Änderung BP / µmol/kg x 100
Th.I. Fusarsäure = 1 [1, 4]: 21,1
Th.W. (Therapeutische Wirksamkeit) ([1]; day 3, 6h): -49,3 %-Änderung BP / µmol/kg x 100
Th.W. (Therapeutische Wirksamkeit) ([1]; day 3, 24h): -20,3 %-Änderung BP / µmol/kg x 100
Th.I. Fusarsäure = 1 [1, 5]: 14,7
Th.W. (Therapeutische Wirksamkeit) ([1]; day 4, 2h): -66,9 %-Änderung BP / µmol/kg x 100
Th.W. (Therapeutische Wirksamkeit) ([1]; day 4, 6h): -103,9 %-Änderung BP / µmol/kg x 100
LD50 p.o. (weiblichen NMRI-Mäusen): ≫ 1000 mg/kg

CCCCc1ccc(C(=O)OCCCN(C)C)nc1 [lfd. Nr. 3, 5-n-Butylpyridin-2-carbonsäure-(3-dimethylaminopropyl)-ester]
BP (%-Änderungen) ([1]; 20,0 mg/kg p.o., day 1, 2h, listed as 2): -5% and -8%
BP (%-Änderungen) ([1]; 20,0 mg/kg p.o., day 1, 6h, listed as 2): -10% and -13%
BP (%-Änderungen) ([1]; 20,0 mg/kg p.o., day 1, 24h): 0%
BP (%-Änderungen) ([1]; 20,0 mg/kg p.o., day 2, 6h, listed as 2): -6% and -9%
BP (%-Änderungen) ([1]; 20,0 mg/kg p.o., day 3, 6h, listed as 2): -4% and -7%
BP (%-Änderungen) ([1]; 20,0 mg/kg p.o., day 3, 24h): -2%
BP (%-Änderungen) ([1]; 20,0 mg/kg p.o., day 4, 2h, listed as 2): -5% and -8%
BP (%-Änderungen) ([1]; 20,0 mg/kg p.o., day 4, 6h, listed as 2): -7% and -10%
Th.I. Fusarsäure = 1 [1, 3]: 4,3
Th.W. (Therapeutische Wirksamkeit) ([1]; day 1, 2h): -5,6 %-Änderung BP / µmol/kg x 100
Th.W. (Therapeutische Wirksamkeit) ([1]; day 1, 6h): -10,3 %-Änderung BP / µmol/kg x 100
Th.W. (Therapeutische Wirksamkeit) ([1]; day 1, 24h): 1,3 %-Änderung BP / µmol/kg x 100
Th.W. (Therapeutische Wirksamkeit) ([1]; day 2, 6h): -6,7 %-Änderung BP / µmol/kg x 100
Th.I. Fusarsäure = 1 [1, 6]: 5,2
Th.I. Fusarsäure = 1 [1, 4]: 2,5
Th.W. (Therapeutische Wirksamkeit) ([1]; day 3, 6h): -4,5 %-Änderung BP / µmol/kg x 100
Th.W. (Therapeutische Wirksamkeit) ([1]; day 3, 24h): 0,4 %-Änderung BP / µmol/kg x 100
Th.I. Fusarsäure = 1 [1, 5]: 1,1
Th.W. (Therapeutische Wirksamkeit) ([1]; day 4, 2h): -5,6 %-Änderung BP / µmol/kg x 100
Th.W. (Therapeutische Wirksamkeit) ([1]; day 4, 6h): -7,6 %-Änderung BP / µmol/kg x 100

CCN(CC)CCCNC(=O)c1ccc(-c2ccc(Cl)cc2)cn1 [Beispiel 9]
LD50 at 336 h [2]: > 1000 mg/kg

CN(C)CCCNC(=O)c1ccc(-c2ccccc2)cn1 [lfd. Nr. 6, 5-Phenylpyridin-2-carbonsäure-(3-dimethylaminopropyl)-amid]
BP (%-Änderungen) ([1]; 6,4 mg/kg p.o., day 1, 2h, listed as 11): +2%
BP (%-Änderungen) ([1]; 6,4 mg/kg p.o., day 1, 6h, listed as 11): -1%
BP (%-Änderungen) ([1]; 6,4 mg/kg p.o., day 1, 24h, listed as 11): +10%
BP (%-Änderungen) ([1]; 6,4 mg/kg p.o., day 2, 6h, listed as 11): -14%
BP (%-Änderungen) ([1]; 6,4 mg/kg p.o., day 3, 6h, listed as 11): -10%
BP (%-Änderungen) ([1]; 6,4 mg/kg p.o., day 3, 24h, listed as 11): +4%
BP (%-Änderungen) ([1]; 6,4 mg/kg p.o., day 4, 6h, listed as 11): -10%
BP (%-Änderungen) ([1]; 25,6 mg/kg p.o., day 1, 2h, listed as 11): -7%
BP (%-Änderungen) ([1]; 25,6 mg/kg p.o., day 1, 6h, listed as 11): -9%
BP (%-Änderungen) ([1]; 25,6 mg/kg p.o., day 1, 24h): +4%
BP (%-Änderungen) ([1]; 25,6 mg/kg p.o., day 2, 6h, listed as 11): +3%
BP (%-Änderungen) ([1]; 25,6 mg/kg p.o., day 3, 6h, listed as 11): -15%
BP (%-Änderungen) ([1]; 25,6 mg/kg p.o., day 3, 24h, listed as 11): -10%
Th.I. Fusarsäure = 1 ([1]; day 1 (2h, 6h and 24h Th.W. averaged), normalised to Th.W. Fusarsäure = 1, listed as 11): -25,7
Th.W. (Therapeutische Wirksamkeit) ([1]; day 1, 2h): 0,9 %-Änderung BP / µmol/kg x 100
Th.W. (Therapeutische Wirksamkeit) ([1]; day 1, 6h): -11,8 %-Änderung BP / µmol/kg x 100
Th.W. (Therapeutische Wirksamkeit) ([1]; day 1, 24h): 39,9 %-Änderung BP / µmol/kg x 100
Th.W. (Therapeutische Wirksamkeit) ([1]; day 2, 6h): -48,0 %-Änderung BP / µmol/kg x 100
Th.I. Fusarsäure = 1 ([1]; day 2, normalised to Th.W. Fusarsäure = 1, listed as 11): 36,9
Th.I. Fusarsäure = 1 ([1]; day 3 (6h and 24h Th.W. averaged), normalised to Th.W. Fusarsäure = 1, listed as 11): 8,0
Th.W. (Therapeutische Wirksamkeit) ([1]; day 3, 6h): -49,9 %-Änderung BP / µmol/kg x 100
Th.W. (Therapeutische Wirksamkeit) ([1]; day 3, 24h): 23,6 %-Änderung BP / µmol/kg x 100
Th.I. Fusarsäure = 1 ([1]; day 4 (2h and 6h Th.W. averaged), normalised to Th.W. Fusarsäure = 1, listed as 11): 5,2
Th.W. (Therapeutische Wirksamkeit) ([1]; day 4, 6h): -36,2 %-Änderung BP / µmol/kg x 100

CCN(CC)CCCOC(=O)c1ccc(-c2ccccc2)cn1 [lfd. Nr. 4, 5-Phenylpyridin-2-carbonsäure-(3-diethylaminopropyl)-ester]
BP (%-Änderungen) ([1]; 10,0 mg/kg p.o., day 1, 2h): -4%
BP (%-Änderungen) ([1]; 10,0 mg/kg p.o., day 1, 6h): -10%
BP (%-Änderungen) ([1]; 10,0 mg/kg p.o., day 1, 24h): -6%
BP (%-Änderungen) ([1]; 10,0 mg/kg p.o., day 2, 6h): -10%
BP (%-Änderungen) ([1]; 10,0 mg/kg p.o., day 3, 6h): -13%
BP (%-Änderungen) ([1]; 10,0 mg/kg p.o., day 3, 24h): -12%
BP (%-Änderungen) ([1]; 10,0 mg/kg p.o., day 4, 2h): -13%
BP (%-Änderungen) ([1]; 10,0 mg/kg p.o., day 4, 6h): -12%
BP (%-Änderungen) ([1]; 20,0 mg/kg p.o., day 1, 2h): -3%
BP (%-Änderungen) ([1]; 20,0 mg/kg p.o., day 1, 6h): -2%
BP (%-Änderungen) ([1]; 20,0 mg/kg p.o., day 1, 24h): -6%
BP (%-Änderungen) ([1]; 20,0 mg/kg p.o., day 2, 6h): -8%
BP (%-Änderungen) ([1]; 20,0 mg/kg p.o., day 3, 6h): -14%
BP (%-Änderungen) ([1]; 20,0 mg/kg p.o., day 3, 24h): -5%
BP (%-Änderungen) ([1]; 20,0 mg/kg p.o., day 4, 2h): -6%
BP (%-Änderungen) ([1]; 20,0 mg/kg p.o., day 4, 6h): -9%
Th.I. Fusarsäure = 1 ([1]; day 1 (2h, 6h and 24h Th.W. averaged), normalised to Th.W. Fusarsäure = 1, listed as 5): 16,2
Th.W. (Therapeutische Wirksamkeit) ([1]; day 1, 2h): -11,8 %-Änderung BP / µmol/kg x 100
Th.W. (Therapeutische Wirksamkeit) ([1]; day 1, 6h): -23,7 %-Änderung BP / µmol/kg x 100
Th.W. (Therapeutische Wirksamkeit) ([1]; day 1, 24h): -19,4 %-Änderung BP / µmol/kg x 100
Th.W. (Therapeutische Wirksamkeit) ([1]; day 2, 6h): -30,2 %-Änderung BP / µmol/kg x 100
Th.I. Fusarsäure = 1 ([1]; day 2, normalised to Th.W. Fusarsäure = 1, listed as 5): 23,2
Th.I. Fusarsäure = 1 ([1]; day 3 (6h and 24h Th.W. averaged), normalised to Th.W. Fusarsäure = 1, listed as 5): 22,5
Th.W. (Therapeutische Wirksamkeit) ([1]; day 3, 6h): -43,1 %-Änderung BP / µmol/kg x 100
Th.W. (Therapeutische Wirksamkeit) ([1]; day 3, 24h): -31,2 %-Änderung BP / µmol/kg x 100
Th.I. Fusarsäure = 1 ([1]; day 4 (2h and 6h Th.W. averaged), normalised to Th.W. Fusarsäure = 1, listed as 5): 6,0
Th.W. (Therapeutische Wirksamkeit) ([1]; day 4, 2h): -34,5 %-Änderung BP / µmol/kg x 100
Th.W. (Therapeutische Wirksamkeit) ([1]; day 4, 6h): -35,5 %-Änderung BP / µmol/kg x 100

CCN(CC)CCCOC(=O)c1ccc(-c2ccccc2)cn1 [Beispiel 4]
Th.I. Fusarsäure = 1 [1, 3]: 10,9
Th.I. Fusarsäure = 1 [1, 6]: 7,2
Th.I. Fusarsäure = 1 [1, 4]: 6,5
Th.I. Fusarsäure = 1 [1, 5]: 3,3
